Data as given in patent publication US6525001B1, “Substituted pyrimidine and pyridine herbicides” (Mid-American Commercialization Corporation, priority 1997, dated 2003).

Experiments:
Assay in all cases: Test B pre-/postemergence
Assay type in all cases: in vivo
Set-up in all cases: key: 0 is no effect; 10 is complete control
[1] = test system: momingglory (Ipomoea hederacea)
Procedure, shortened: (§1)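 Compounds in a surfactant-containing, non-phytotoxic solvent blend are applied to freshly planted seed (preemergence) and, concurrently, to seedlings of 2 to 18 cm at 1–4 leaves (postemergence). Plants stay in the greenhouse twelve to sixteen days and are then scored visually from 0 (no effect) to 10 (complete control).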

[2] = test system: giant foxtail (Setaria faberii)
Procedure, shortened: as §1

[3] = test system: broadleaf signalgrass (Brachiaria decumbens)
Procedure, shortened: as §1

[4] = test system: blackgrass (Alopecurus myosuroides)
Procedure, shortened: as §1

[5] = test system: cocklebur (Xanthium strumarium)
Procedure, shortened: as §1

[6] = test system: velvetleaf (Abutilon theophrasti)
Procedure, shortened: as §1

[7] = test system: pigweed (Amaranthus retroflexus)
Procedure, shortened: as §1

[8] = test system: bedstraw (Galium aparine)
Procedure, shortened: as §1

[9] = test system: wheat (Triticum aestivum)
Procedure, shortened: as §1

[10] = test system: sugar beet (Beta vulgaris)
Procedure, shortened: as §1

wild oat (Avena fatua) = test system: wild oat (Avena fatua)
Procedure, shortened: as §1

[11] = test system: crabgrass (Digitaria sanguinalis)
Procedure, shortened: as §1

[12] = test system: purple nutsedge (Cyperus rotundus)
Procedure, shortened: as §1

corn (Zea mays) = test system: corn (Zea mays)
Procedure, shortened: as §1

Cc1cnc(-c2ccc(C(F)(F)F)cc2)nc1Cn1ccc(C(F)(F)C(F)(F)F)n1 [Compound 14]
Plant response rating, Morningglory ([1]; Rate 62 g/ha, Postemergence): 2 | Morningglory plant response rating ([1]; Rate 62 g/ha, Preemergence): 0 | Plant response rating, Morningglory ([1]; Rate 125 g/ha, Postemergence): 6 | Morningglory plant response rating ([1]; Rate 125 g/ha, Preemergence): 0 | Plant response rating, Morningglory ([1]; Rate 250 g/ha, Postemergence): 6 | Plant response rating, Morningglory ([1]; Rate 250 g/ha, Preemergence): 2 | Plant response rating, Morningglory ([1]; Rate 500 g/ha, Postemergence): 8 | Plant response rating, Morningglory ([1]; Rate 500 g/ha, Preemergence): 8 | Plant response rating, Giant foxtail ([2]; Rate 62 g/ha, Postemergence): 1 | Giant foxtail plant response rating ([2]; Rate 62 g/ha, Preemergence): 0 | Plant response rating, Giant foxtail ([2]; Rate 125 g/ha, Postemergence): 1 | Giant foxtail plant response rating ([2]; Rate 125 g/ha, Preemergence): 4 | Plant response rating, Giant foxtail ([2]; Rate 250 g/ha, Postemergence): 1 | Plant response rating, Giant foxtail ([2]; Rate 250 g/ha, Preemergence): 7 | Plant response rating, Giant foxtail ([2]; Rate 500 g/ha, Postemergence): 3 | Plant response rating, Giant foxtail ([2]; Rate 500 g/ha, Preemergence): 9 | Plant response rating, B. signalgrass ([3]; Rate 62 g/ha, Postemergence): 2 | B. signalgrass plant response rating ([3]; Rate 62 g/ha, Preemergence): 0 | Plant response rating, B. signalgrass ([3]; Rate 125 g/ha, Postemergence): 2 | B. signalgrass plant response rating ([3]; Rate 125 g/ha, Preemergence): 0 | Plant response rating, B. signalgrass ([3]; Rate 250 g/ha, Postemergence): 3 | Plant response rating, B. signalgrass ([3]; Rate 250 g/ha, Preemergence): 0 | Plant response rating, B. signalgrass ([3]; Rate 500 g/ha, Postemergence): 4 | Plant response rating, B. signalgrass ([3]; Rate 500 g/ha, Preemergence): 5 | Plant response rating, Blackgrass ([4]; Rate 62 g/ha, Postemergence): 1 | Blackgrass plant response rating ([4]; Rate 62 g/ha, Preemergence): 0 | Plant response rating, Blackgrass ([4]; Rate 125 g/ha, Postemergence): 2 | Blackgrass plant response rating ([4]; Rate 125 g/ha, Preemergence): 0 | Plant response rating, Blackgrass ([4]; Rate 250 g/ha, Postemergence): 3 | Plant response rating, Blackgrass ([4]; Rate 250 g/ha, Preemergence): 0 | Plant response rating, Blackgrass ([4]; Rate 500 g/ha, Postemergence): 3 | Plant response rating, Blackgrass ([4]; Rate 500 g/ha, Preemergence): 3 | Plant response rating, Cocklebur ([5]; Rate 62 g/ha, Postemergence): 4 | Cocklebur plant response rating ([5]; Rate 62 g/ha, Preemergence): 0 | Plant response rating, Cocklebur ([5]; Rate 125 g/ha, Postemergence): 7 | Plant response rating, Cocklebur ([5]; Rate 250 g/ha, Postemergence): 7 | Plant response rating, Cocklebur ([5]; Rate 250 g/ha, Preemergence): 0 | Plant response rating, Cocklebur ([5]; Rate 500 g/ha, Postemergence): 7 | Plant response rating, Velvetleaf ([6]; Rate 62 g/ha, Postemergence): 3 | Velvetleaf plant response rating ([6]; Rate 62 g/ha, Preemergence): 0 | Plant response rating, Velvetleaf ([6]; Rate 125 g/ha, Postemergence): 4 | Velvetleaf plant response rating ([6]; Rate 125 g/ha, Preemergence): 0 | Plant response rating, Velvetleaf ([6]; Rate 250 g/ha, Postemergence): 4 | Plant response rating, Velvetleaf ([6]; Rate 250 g/ha, Preemergence): 1 | Plant response rating, Velvetleaf ([6]; Rate 500 g/ha, Postemergence): 4 | Plant response rating, Velvetleaf ([6]; Rate 500 g/ha, Preemergence): 7 | Plant response rating, Redroot pigweed ([7]; Rate 62 g/ha, Postemergence): 8 | Redroot pigweed plant response rating ([7]; Rate 62 g/ha, Preemergence): 0 | Plant response rating, Redroot pigweed ([7]; Rate 125 g/ha, Postemergence): 9 | Redroot pigweed plant response rating ([7]; Rate 125 g/ha, Preemergence): 2 | Plant response rating, Redroot pigweed ([7]; Rate 250 g/ha, Postemergence): 9 | Plant response rating, Redroot pigweed ([7]; Rate 250 g/ha, Preemergence): 4 | Plant response rating, Redroot pigweed ([7]; Rate 500 g/ha, Postemergence): 9 | Plant response rating, Redroot pigweed ([7]; Rate 500 g/ha, Preemergence): 4 | Plant response rating, Bedstraw ([8]; Rate 62 g/ha, Postemergence): 4 | Bedstraw plant response rating ([8]; Rate 62 g/ha, Preemergence): 0 | Plant response rating, Bedstraw ([8]; Rate 125 g/ha, Postemergence): 4 | Bedstraw plant response rating ([8]; Rate 125 g/ha, Preemergence): 0 | Plant response rating, Bedstraw ([8]; Rate 250 g/ha, Postemergence): 8 | Plant response rating, Bedstraw ([8]; Rate 250 g/ha, Preemergence): 0 | Plant response rating, Bedstraw ([8]; Rate 500 g/ha, Postemergence): 10 | Plant response rating, Bedstraw ([8]; Rate 500 g/ha, Preemergence): 2 | Plant response rating, Wheat ([9]; Rate 62 g/ha, Postemergence): 0 | Wheat plant response rating ([9]; Rate 62 g/ha, Preemergence): 0 | Plant response rating, Wheat ([9]; Rate 125 g/ha, Postemergence): 0 | Wheat plant response rating ([9]; Rate 125 g/ha, Preemergence): 0 | Plant response rating, Wheat ([9]; Rate 250 g/ha, Postemergence): 2 | Plant response rating, Wheat ([9]; Rate 250 g/ha, Preemergence): 0 | Plant response rating, Wheat ([9]; Rate 500 g/ha, Postemergence): 3 | Plant response rating, Wheat ([9]; Rate 500 g/ha, Preemergence): 0 | Plant response rating, Sugarbeets ([10]; Rate 62 g/ha, Postemergence): 7 | Sugarbeets plant response rating ([10]; Rate 62 g/ha, Preemergence): 3 | Plant response rating, Sugarbeets ([10]; Rate 125 g/ha, Postemergence): 8 | Sugarbeets plant response rating ([10]; Rate 125 g/ha, Preemergence): 5 | Plant response rating, Sugarbeets ([10]; Rate 250 g/ha, Postemergence): 8 | Plant response rating, Sugarbeets ([10]; Rate 250 g/ha, Preemergence): 6 | Plant response rating, Sugarbeets ([10]; Rate 500 g/ha, Postemergence): 9 | Plant response rating, Sugarbeets ([10]; Rate 500 g/ha, Preemergence): 9 | Plant response rating, Wild oats (wild oat (Avena fatua); Rate 62 g/ha, Postemergence): 0 | Wild oats plant response rating (wild oat (Avena fatua); Rate 62 g/ha, Preemergence): 0 | Plant response rating, Wild oats (wild oat (Avena fatua); Rate 125 g/ha, Postemergence): 1 | Wild oats plant response rating (wild oat (Avena fatua); Rate 125 g/ha, Preemergence): 0 | Plant response rating, Wild oats (wild oat (Avena fatua); Rate 250 g/ha, Postemergence): 3 | Plant response rating, Wild oats (wild oat (Avena fatua); Rate 250 g/ha, Preemergence): 0 | Plant response rating, Wild oats (wild oat (Avena fatua); Rate 500 g/ha, Postemergence): 3 | Plant response rating, Wild oats (wild oat (Avena fatua); Rate 500 g/ha, Preemergence): 2 | Plant response rating, Crabgrass ([11]; Rate 62 g/ha, Postemergence): 2 | Crabgrass plant response rating ([11]; Rate 62 g/ha, Preemergence): 0 | Plant response rating, Crabgrass ([11]; Rate 125 g/ha, Postemergence): 2 | Crabgrass plant response rating ([11]; Rate 125 g/ha, Preemergence): 1 | Plant response rating, Crabgrass ([11]; Rate 250 g/ha, Postemergence): 2 | Plant response rating, Crabgrass ([11]; Rate 250 g/ha, Preemergence): 7 | Plant response rating, Crabgrass ([11]; Rate 500 g/ha, Postemergence): 4 | Plant response rating, Crabgrass ([11]; Rate 500 g/ha, Preemergence): 8 | Plant response rating, Nutsedge ([12]; Rate 62 g/ha, Postemergence): 0 | Nutsedge plant response rating ([12]; Rate 62 g/ha, Preemergence): 0 | Plant response rating, Nutsedge ([12]; Rate 125 g/ha, Postemergence): 0 | Nutsedge plant response rating ([12]; Rate 125 g/ha, Preemergence): 0 | Plant response rating, Nutsedge ([12]; Rate 250 g/ha, Postemergence): 0 | Plant response rating, Nutsedge ([12]; Rate 250 g/ha, Preemergence): 0 | Plant response rating, Nutsedge ([12]; Rate 500 g/ha, Postemergence): 0 | Plant response rating, Nutsedge ([12]; Rate 500 g/ha, Preemergence): 0 | Plant response rating, Corn (corn (Zea mays); Rate 62 g/ha, Postemergence): 2 | Corn plant response rating (corn (Zea mays); Rate 62 g/ha, Preemergence): 0 | Plant response rating, Corn (corn (Zea mays); Rate 125 g/ha, Postemergence): 2 | Corn plant response rating (corn (Zea mays); Rate 125 g/ha, Preemergence): 0 | Plant response rating, Corn (corn (Zea mays); Rate 250 g/ha, Postemergence): 3 | Plant response rating, Corn (corn (Zea mays); Rate 250 g/ha, Preemergence): 0 | Plant response rating, Corn (corn (Zea mays); Rate 500 g/ha, Postemergence): 3 | Plant response rating, Corn (corn (Zea mays); Rate 500 g/ha, Preemergence): 3
